According to patent US11013235B2 (priority 2015, dated 2021):
Where two headings read alike, the source gives them in different places.

How the values were obtained:
Format in all cases: in vivo
[1] = tested on: Botrytis cinerea; experiment: Control of Botrytis cinerea disease in tobacco (Bc-Nt); conditions: 1 μM spraying every 24 hours for one week, water control 6.7
Protocol: (§1) In order to compare the effect of the compounds of formula I to V on the control of diseases in different plants, experiments were conducted in tobacco, tomato and Arabidopsis thaliana plants inoculated with Phytophthora parasitica, Rhizoctonia solani, Alternaria solani, Nocardia sp and Botrytis cinerea, respectively. The compounds were applied by spraying, at a concentration of 1 μM, every 24 hours for one week. The plant mortality rate was determined for the disease produced by Phytophthora parasitica, Rhizoctonia solani and Nocardia sp, while the percentage of leaves with symptoms was determined for the infection by Alternaria solani. In the case of plants affected by Botrytis cinerea, the lesion diameter was measured. […] Each treatment included fifty plants. As control, plants treated with water were studied. The plants of each treatment were previously inoculated with the indicated pathogens, according to different inoculation protocols (Frontiers in Plant Science 3: 268, 1-6, 2012), and later they were treated with the compounds.

[2] = tested on: Candidatus 'Liberibacter asiaticus'; conditions: spraying every 15 days, 12 months after treatment, Citrus sinensis with HLB
[3] = tested on: Meloidogyne incognita; experiment: Nematode control, nodules per plant: Meloidogyne incognita; conditions: 1 μM foliar application every 5 days, evaluation 35 days after, control 34
Protocol: (§2) The solutions of the compounds were prepared in ethanol and diluted in water, up to a concentration of 1 μM for a foliar application. Applications were conducted every 5 days, spraying only the leafs with each compound. Ten plants were used for each treatment and the final evaluation was performed 35 days after, by quantifying the number of nodules per plant.

[4] = tested on: Botrytis cinerea; experiment: Control of Botrytis cinerea disease in tomato (Bc-SI); conditions: 1 μM spraying every 24 hours for one week, water control 7.4
Protocol: as §1

[5] = tested on: Rhizoctonia solani; experiment: Control of Rhizoctonia solani disease in tomato (Rs-SI); conditions: 1 μM spraying every 24 hours for one week, water control 96
Protocol: as §1

[6] = tested on: Alternaria solani; experiment: Control of Alternaria solani disease in tomato (As-SI); conditions: 1 μM spraying every 24 hours for one week, water control 68
Protocol: as §1

[7] = tested on: Radopholus similis; experiment: Nematode control, nodules per plant: Radopholus similis; conditions: 1 μM foliar application every 5 days, evaluation 35 days after, control 45
Protocol: as §2

[8] = tested on: Botrytis cinerea; experiment: Control of Botrytis cinerea disease in Arabidopsis (Bc-At); conditions: 1 μM spraying every 24 hours for one week, water control 8.7
Protocol: as §1

[9] = tested on: Pratylenchus coffeae; experiment: Nematode control, nodules per plant: Pratylenchus coffeae; conditions: 1 μM foliar application every 5 days, evaluation 35 days after, control 42
Protocol: as §2

[10] = tested on: Phytophthora parasitica; experiment: Control of Phytophthora parasitica disease in tobacco (Pp-Nt); conditions: 1 μM spraying every 24 hours for one week, water control 91
Protocol: as §1

[11] = tested on: Rhizoctonia solani; experiment: Control of Rhizoctonia solani disease in tobacco (Rs-Nt); conditions: 1 μM spraying every 24 hours for one week, water control 87
Protocol: as §1

[12] = tested on: Nocardia sp; experiment: Control of Nocardia sp disease in tobacco (N-Nt); conditions: 1 μM spraying every 24 hours for one week, water control 58
Protocol: as §1

Row | SMILES | Bc-Nt: mean of the diameter of the lesion [1] [mm] | Titers of the bacterium ([2]; 0.001 μM) [copies per reaction] | Titers of the bacterium ([2]; 0.01 μM) [copies per reaction] | Titers of the bacterium ([2]; 1 μM) [copies per reaction] | Titers of the bacterium ([2]; 5 μM) [copies per reaction] | Titers of the bacterium ([2]; 10 μM) [copies per reaction] | Mi: number of nodules per plant [3] | Bc-SI: mean of the diameter of the lesion [4] [mm] | Rs-SI: percentage of mortality [5] [%] | As-SI: percentage of leaves with the disease symptoms [6] [%] | Rs: number of nodules per plant [7] | Bc-At: mean of the diameter of the lesion [8] [mm] | Pc: number of nodules per plant [9] | Pp-Nt: percentage of mortality [10] [%] | Rs-Nt: percentage of mortality [11] [%] | N-Nt: percentage of mortality [12] [%]
1 | Cc1coc2cc3oc(=O)c(CCC(=O)NCC(O)CO)cc3cc12 (stereo not drawn) [IA, N-(2,3-dihydroxypropyl)-3-{6-methyl-2-oxo-2H-furo[3,2-g]chromen-3-yl}propanamide] | 0.3 | 524 | 12 | 0 | 52 | 9652 | 23 | 0.8 | 3 | 1 | 12 | 1.2 | 18 | 1 | 2 | 1
2 | O=C(CCc1cc2cc3c(C4CCCCC4)coc3cc2oc1=O)NCC(O)CO (stereo not drawn) [IC, 3-{6-cyclohexyl-2-oxo-2H-furo[3,2-g]chromen-3-yl}-N-(2,3-dihydroxypropyl)propanamide] | 0.9 | 432 | 9 | 0 | 43 | 9632 | 4 | 0.8 | 2 | 3 | 13 | 0.5 | 22 | 1 | 4 | 2
3 | O=C(CCc1cc2cc3c(C4CCCC4)coc3cc2oc1=O)NCC(O)CO (stereo not drawn) [ID, 3-{6-cyclopentyl-2-oxo-2H-furo[3,2-g]chromen-3-yl}-N-(2,3-dihydroxypropyl)propanamide] | 1.5 | 123 | 0 | 0 | 123 | 5489 | 0 | 2.5 | 2 | 8 | 0 | 1.5 | 11 | 0 | 0 | 1
4 | O=C(CCc1cc2cc3c(-c4ccc5ccccc5c4)coc3cc2oc1=O)NCC(O)CO (stereo not drawn) [IE, N-(2,3-dihydroxypropyl)-3-[6-(naphthalen-2-yl)-2-oxo-2H-furo[3,2-g]chromen-3-yl]propanamide] | 1.5 | 587 | 0 | 0 | 87 | 6574 | 0 | 0.8 | 0 | 7 | 0 | 2.4 | 0 | 0 | 0 | 0
5 | O=C(CCc1cc2cc3ccoc3cc2oc1=O)NCC(O)CO (stereo not drawn) [IF, N-(2,3-dihydroxypropyl)-3-{2-oxo-2H-furo[3,2-g]chromen-3-yl}propanamide] | 0.9 | 985 | 0 | 0 | 98 | 6325 | 0 | 1.2 | 1 | 5 | 0 | 0.7 | 0 | 0 | 0 | 0
6 | O=C(CCc1cc2cc3c(-n4cccc4)coc3cc2oc1=O)NCC(O)CO (stereo not drawn) [IG, N-(2,3-dihydroxypropyl)-3-[2-oxo-6-(1H-pyrrol-1-yl)-2H-furo[3,2-g]chromen-3-yl]propanamide] | 0.3 | 657 | 11 | 1 | 65 | 5423 | 0 | 0.8 | 1 | 7 | 31 | 1.2 | 0 | 3 | 0 | 0
7 | Cc1coc2cc3oc(=O)c(CCC(=O)NCC(O)CO)c(C)c3cc12 (stereo not drawn) [IH, N-(2,3-dihydroxypropyl)-3-{4,6-dimethyl-2-oxo-2H-furo[3,2-g]chromen-3-yl}propanamide] | 2.0 | 658 | 8 | 12 | 68 | 4569 | 21 | 1.6 | 3 | 1 | 19 | 1.1 | 11 | 1 | 2 | 1
8 | Cc1c(CCC(=O)NCC(O)CO)c(=O)oc2cc3occ(-c4ccccc4)c3cc12 (stereo not drawn) [II, N-(2,3-dihydroxypropyl)-3-{4-methyl-2-oxo-6-phenyl-2H-furo[3,2-g]chromen-3-yl}propanamide] | 0.9 | 756 | 14 | 14 | 76 | 8420 | 3 | 0.8 | 2 | 2 | 2 | 0.5 | 13 | 2 | 3 | 1
9 | CC1=COC2c3cc(CC(=O)NCC(O)CO)c(=O)oc3C=CC12 (stereo not drawn) [IIA, N-(2,3-dihydroxypropyl)-2-{5-methyl-11-oxo-3,10-dioxatricyclo[7.4.0.0^{2,6}]trideca-1(9),4,7,12-tetraen-12-yl}acetamide] | 0.9 | 598 | 14 | 0 | 98 | 9845 | 2 | 0.8 | 3 | 1 | 17 | 0.5 | 14 | 1 | 2 | 1
